Measured values taken from US6214821A, “Methods and composition for the inhibition of cancer cells” (Washington State University Research Foundation, priority 1999, dated 2001).
Read-outs that look alike come from different tables or passages of the source.

How the values were obtained:
GI 101A cells [1] = settings: cited from earlier work
[2] = tested on: normal endothelial cells (BVEC); assay: Flow cytometric cell cycle analysis (propidium iodide); assay type: cell-based, bovine; settings: 100 nM CPT, 24 h
p34^cdc2 in HeLa cells = settings: CPT treatment; cited from earlier work
GI 101A cells [3] = assay: cells; assay type: cell-based, human; settings: Homo sapiens, 24 h
Source text: (§1) . Cell lines and Culture.
(§2) Drugs and Chemical Reagents. […] . […] All other chemicals were reagent grade.
(§3) Drug Treatment and Survival Curves.
(§4) Pharmacol. 28:370-376 (1991). […] .
(§5) Drug Combinations and Data Analysis. […] . Pharmacol. (in press, 1997). […] Enzyme Regul. […] Enzyme Regul. 22:27-55 (1984).
(§6) . […] Enzyme Regul. 22:27-55 (1984).

MDA-231 cells [4] = assay: cells; assay type: cell-based, human; settings: Homo sapiens
Source text: as §1, §2, §3, §4, §5, §6

CPT-sensitive cells = settings: very high doses of CPT; cited from earlier work
MDA-231 cells [5] = settings: cited from earlier work
MDA-231 cells [6] = assay: Flow cytometric cell cycle analysis (propidium iodide); assay type: cell-based, human; settings: 100 nM CPT, 24 h
GI 101A cells [7] = assay: as above; assay type: cell-based, human; settings: 100 nM CPT, 24 h
in vivo = settings: rat, iv, 10 mg/kg
[8] = tested on: normal bovine venular endothelial cells (BVEC); assay: cells; settings: Bos taurus, Endothelial cell, 24 h, read-out: dose inhibiting growth by 50% (CPT alone)
CPT-resistant cells = settings: low doses of CPT; cited from earlier work
[9] = tested on: murine bone marrow cells (CFU-GM); assay: In vitro bone marrow cell protection assay (CFU-GM colonies); assay type: cell-based, C57/BL mice; settings: Mus musculus, 0-1000 nM, combination 1:1 molar ratio
[10] = basic side-chain at position 9 forms salts with acids; cited from earlier work
MDA-231 cells [11] = assay: ELISA BrdU incorporation assay (DNA synthesis); assay type: cell-based, human; settings: TPT 10 and 50 nM, 24 hr
HMEC/E6 (p53-) = assay: Crystal violet staining growth inhibition assay, median effect analysis; assay type: cell-based; settings: Homo sapiens, 24 hr treatment
Source text: Cytotoxicity and Bromodeoxyuridine incorporation assays. […] Enzyme Regul.

MDA-231 (mutant p53) = assay: as above; settings: Homo sapiens, MDA-MB-231, 24 h, read-out: IC50 MDA-231 (p53-)
MDA-231 cells [12] = assay: FACS cell cycle / BrdU DNA synthesis assay; assay type: cell-based, human; settings: TPT 10, 50, 100 nM, 24 h, FIG. 8A
HMEC (p53+) = assay: Crystal violet staining growth inhibition assay, median effect analysis; settings: Homo sapiens, 24 h, read-out: IC50 HMEC (p53+)
[13] = tested on: DNA damage-dependent G2 -checkpoint; settings: cited from earlier work

CC[C@@]1(O)C(=O)OCc2c1cc1n(c2=O)Cc2cc3ccccc3nc2-1 [CPT, Camptothecin]
cell cycle effect of CPT at low and high doses (GI 101A cells [1]): in the G2 phase while at high doses cells are arrested in the S phase | cell cycle effect of CPT alone [2]: caused an arrest of tumor as well as normal cells in S phase | p34cdc2 activity (p34^cdc2 in HeLa cells): loss in activity of p34^cdc2 in HeLa cells | IC50 (GI 101A cells [3]; read-out: 50% inhibition of cell growth (CPT alone)): 300 nM | IC50 (GI 101A cells [3]; read-out: median-effect dose, Dm, for CPT): 104 nM | IC50 (MDA-231 cells [4]; MDA-MB-231, 24 h, read-out: 50% inhibition of cell growth (CPT alone)): 200 nM | IC50 (MDA-231 cells [4]; MDA-MB-231, 24 h, read-out: median-effect dose, Dm, for CPT): 28 nM | IC50 (MDA-231 cells [4]; MDA-MB-231, read-out: IC50 of CPT in the absence of UCN-01 (so in the source)): 5 nM | 3H-thymidine incorporation (CPT-sensitive cells): continued to incorporate ^3 H-thymidine | cell cycle effect of CPT at low and high doses (MDA-231 cells [5]): in the G2 phase while at high doses cells are arrested in the S phase | cell cycle effect of CPT alone (MDA-231 cells [6]): caused an arrest of tumor as well as normal cells in S phase | cell cycle effect of CPT alone (GI 101A cells [7]): caused an arrest of tumor as well as normal cells in S phase | half-life (in vivo; in vivo): 1.42 h | IC50 [8]: > 1000 nM | 3H-thymidine incorporation (CPT-resistant cells): stopped incorporating ^3 H-thymidine

CC[C@@]1(O)C(=O)OCc2c1cc1n(c2=O)Cc2cc3c(CN(C)C)c(O)ccc3nc2-1 [TPT, (S)-10[(dimethylamino)methyl]-4-ethyl-4,9-dihydroxy-IH-pyrano[3',4': 6,7]ind olizino[1,2-b]quinolone-3,14(4H,12H)-dione]
IC50 [9]: 19 nM | water solubility [10]: water-soluble | BrdU incorporation (MDA-231 cells [11]): stopped incorporating BrdU | IC50 (HMEC/E6 (p53-)): 34 nM | IC50 (MDA-231 (mutant p53)): 37 nM | half-life (in vivo; plasma): 1.53 h | cell cycle effect of TPT by itself (MDA-231 cells [12]): induced an accumulation of MDA-231 cells in S phase | IC50 (HMEC (p53+)): 6 nM

Cn1c(=O)c2c(ncn2C)n(C)c1=O [caffeine]
effect on DNA damage-dependent G2 checkpoint [13]: override the DNA damage-dependent G2 -checkpoint and enhance drug-induced cytotoxicity
